Laboratory results taken from ChEMBL document CHEMBL3286130, “8-Substituted 2-alkynyl-N(9)-propargyladenines as A2A adenosine receptor antagonists” (Bioorg Med Chem, 2014).
Activity calls are given as the source filed them. The rule behind the calls is not given here.

Columns and labels:
Adenosine receptor A2a [1] = target: Adenosine receptor A2a (Rattus norvegicus, UniProt P30543); assay: Antagonist activity at adenosine A2A receptor in 5-HT-treated Wistar rat femoral vein assessed as inhibition of 2-octyn-1-yladenosine-induced vasodilation incubated for 10 mins prior to addition of 5-HT
[2] = target: Adenosine receptor A2a (Rattus norvegicus) (UniProt P30543); assay: Potency index, ratio of istradefylline IC50 to compound IC50 for adenosine A2A receptor in 5-HT-treated Wistar rat femoral vein assessed as inhibition of 2-octyn-1-yladenosine-induced vasodilation
Mus musculus [3] = assay: Anticataleptogenic activity in ddY mouse assessed as reduction in haloperidol-induced catelepsy at 3 mg/kg, po measured after 1 to 7 hrs; type: functional, organism-based; design: dose 3 mg/kg
Mus musculus [4] = assay: Anticataleptogenic activity in po dosed ddY mouse assessed as reduction in haloperidol-induced catelepsy measured after 5 hrs; type: functional; details: for minimal effective dose: read-out: MED
Rattus norvegicus [5] = assay: Antiparkinsonian activity in unilateral 6-hydroxydopamine-lesioned Sprague-Dawley rat assessed as potentiation of L-DOPA-induced turning behavior at 3 mg/kg, po measured for 15 mins; type: functional, organism-based; design: dose 3 mg/kg
Rattus norvegicus [6] = assay: Antiparkinsonian activity in unilateral 6-hydroxydopamine-lesioned Sprague-Dawley rat assessed as induction of stereotyped behavior at 3 mg/kg, po measured for 15 mins; type: functional, organism-based; design: dose 3 mg/kg
Adenosine receptor A2a [7] = target: Adenosine receptor A2a (Homo sapiens, UniProt P29274); assay: biochemical
Chain of Adenosine receptor A2a (Homo sapiens, UniProt P29274) (P29274 whole entry): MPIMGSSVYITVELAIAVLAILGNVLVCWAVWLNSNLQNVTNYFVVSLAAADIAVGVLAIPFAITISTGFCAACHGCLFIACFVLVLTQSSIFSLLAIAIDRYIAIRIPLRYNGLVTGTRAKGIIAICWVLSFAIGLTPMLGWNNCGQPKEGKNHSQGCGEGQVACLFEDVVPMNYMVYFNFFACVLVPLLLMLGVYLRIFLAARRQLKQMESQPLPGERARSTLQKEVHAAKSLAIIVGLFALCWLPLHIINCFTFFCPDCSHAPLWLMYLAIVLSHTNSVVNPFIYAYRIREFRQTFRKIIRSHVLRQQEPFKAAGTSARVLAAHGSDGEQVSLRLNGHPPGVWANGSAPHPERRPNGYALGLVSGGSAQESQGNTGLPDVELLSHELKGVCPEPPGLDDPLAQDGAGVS
Description: Displacement of [3H]-CGS-21680 from human adenosine A2A receptor expressed in HEK293 cells after 90 mins

Chain of Adenosine receptor A2a (Rattus norvegicus, UniProt P30543) (P30543 whole entry): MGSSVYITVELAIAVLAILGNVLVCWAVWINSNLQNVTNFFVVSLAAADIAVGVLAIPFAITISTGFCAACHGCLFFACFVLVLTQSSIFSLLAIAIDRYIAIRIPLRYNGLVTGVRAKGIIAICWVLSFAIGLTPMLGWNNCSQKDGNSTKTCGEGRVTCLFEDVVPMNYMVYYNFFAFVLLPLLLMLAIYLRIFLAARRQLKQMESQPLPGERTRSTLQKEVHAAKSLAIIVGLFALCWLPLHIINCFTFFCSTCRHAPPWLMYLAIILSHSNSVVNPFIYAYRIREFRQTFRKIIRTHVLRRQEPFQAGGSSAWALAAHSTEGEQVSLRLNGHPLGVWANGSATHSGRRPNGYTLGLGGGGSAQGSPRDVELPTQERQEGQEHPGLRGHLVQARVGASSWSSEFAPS
Chain of Adenosine receptor A2a (Rattus norvegicus) (P30543 whole entry): as above

Row | SMILES | IC50 (Adenosine receptor A2a [1]) [nM] | other results
1 | CCCCCCC#Cc1nc(N)c2ncn(Cc3ccccc3)c2n1 | > 10000 | 
2 | CCCCCCC#Cc1nc(N)c2ncn(CCO)c2n1 | > 10000 | 
3 | CCCCCCC#Cc1nc(N)c2ncn(CC)c2n1 | 6700 | 
4 | C=CCn1cnc2c(N)nc(C#CCCCCCC)nc21 | > 10000 | 
5 | CCCCCCC#Cc1nc(N)c2ncn(C3CCCC3)c2n1 | > 10000 | 
6 | C#CCn1cnc2c(N)nc(C#CC3(O)CCCCC3)nc21 | 97.3 | 
7 | CCCCCCC#Cc1nc(N)c2ncn(C)c2n1 | 9000 | 
8 | CCCCCCC#Cc1nc(N)c2ncn(CC#N)c2n1 | > 10000 | 
9 | C#CCn1cnc2c(N)nc(C#CCCCCCC)nc21 | 200 | 
10 | CCCCCCC#Cc1nc(N)c2ncn(CCC)c2n1 | > 10000 | 
11 | CCn1c(=O)c2c(nc(/C=C/c3ccc(OC)c(OC)c3)n2C)n(CC)c1=O [ISTRADEFYLLINE] |  | Activity (Mus musculus [3]): Active; Activity (Mus musculus [4]): Dose-dependent effect; minimal effective dose (Mus musculus [4]): 3 mg/kg

Now from value to molecule, other results behind:

Row | IC50 (Adenosine receptor A2a [1]) [nM] | SMILES | other results
12 | 3.6 | C#CCn1c(-c2ccco2)nc2c(N)nc(C#CCCCCCC)nc21 | 
13 | 0.5 | C#CCn1c(Br)nc2c(N)nc(C#CC3(O)CCCCC3)nc21 | 
14 | 3 | C#CCn1c(Cl)nc2c(N)nc(C#CC3(O)CCCCC3)nc21 | 
15 | 0.4 | C#CCn1c(-c2ccco2)nc2c(N)nc(C#CC3(O)CCCCC3)nc21 | Ratio IC50 [2]: 570
16 | 75.5 | C#CCn1c(-c2ccccc2)nc2c(N)nc(C#CCCCCCC)nc21 | 
17 | 22.8 | C#CCn1c(-c2cccc(F)c2)nc2c(N)nc(C#CCCCCCC)nc21 | 
18 | 1.9 | C#CCn1c(-n2nccn2)nc2c(N)nc(C#CCCCCCC)nc21 | 
19 | 5.1 | C#CCn1c(Br)nc2c(N)nc(C#CCCCCCC)nc21 | Activity (Mus musculus [3]): Active; Activity (Mus musculus [4]): Dose-dependent effect; minimal effective dose (Mus musculus [4]): 3 mg/kg; Activity (Rattus norvegicus [5]): Active; Activity (Rattus norvegicus [6]): inactive; Ki (Adenosine receptor A2a [7]): 0.56 nM
20 | 6 | C#CCn1c(Cl)nc2c(N)nc(C#CCCCCCC)nc21 | 
